# Experimental data from US20230051589A1, “COMPOUNDS AND COMPOSITIONS FOR TREATING CONDITIONS ASSOCIATED WITH NLRP ACTIVITY” (Novartis AG, priority 2018, published 2023).
# Test system: IL-1β production in PMA-differentiated THP-1 cells
# Assay: IL-1β production in PMA-differentiated THP-1 cells stimulated with gramicidin (hTHP-1 assay, 2% fetal bovine serum; Procedures 1-3)
# Format: cell-based, human
# Details: Homo sapiens, THP-1, Table B3; hTHP-1 assay containing 2% fetal bovine serum, gramicidin stimulation, IL-1β readout; read-out: hTHP-1 IC50
# Outline: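 IL-1β released into supernatants was read by HTRF after 2 h gramicidin (5 μM) challenge. Before challenge, compounds (3-fold dilutions, top 100 μM, 0.37% DMSO) were given 1 h on THP-1 cells differentiated with PMA (20 ng/ml, 16-18 h) and held in 2% FBS medium.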
row,IC50 [nM],SMILES
1,8 to 40,"CNC(c1ccc(S(N)(=O)=NC(=O)Nc2c3c(cc4c2CC4)CCC3)s1)C1CC1 (single isomer, unassigned) [Example 721, 5-((R) or (S)-cyclopropyl(methylamino)methyl)-N′-((2,4,5,6-tetrahydro-1H-cyclobuta[f]inden-3-yl)carbamoyl)thiophene-2-sulfonimidamide]"
2,200 to 1000,"NS(=O)(=NC(=O)Nc1c2c(cc3c1CC3)CCC2)c1cc2c(s1)CCNC2C(F)F (single isomer, unassigned) [Example 782, (S) or (R) -4-(difluoromethyl)-N′-((2,4,5,6-tetrahydro-1H-cyclobuta[f]inden-3-yl)carbamoyl)-4,5,6,7-tetrahydrothieno[3,2-c]pyridine-2-sulfonimidamide]"

# Same assay, conditions: Table B3; hTHP-1 assay containing 2% fetal bovine serum, gramicidin stimulation, IL-1β readout; read-out: hTHP-1 IC50
row,IC50 [nM],SMILES
1,8 to 40,"NS(=O)(=NC(=O)Nc1c2c(cc3c1CC3)CCC2)c1cc2c(s1)CCNC2 (single isomer, unassigned) [Example 716]"
2,200 to 1000,"NS(=O)(=NC(=O)Nc1c2c(cc3c1CC3)CCC2)c1cc2c(s1)CCNC2 (single isomer, unassigned) [Example 717]"
3,8 to 40,"CNC(c1ccc(S(N)(=O)=NC(=O)Nc2c3c(cc4c2CC4)CCC3)s1)C1CC1 (single isomer, unassigned) [Example 720, 5-((S) or (R)-cyclopropyl(methylamino)methyl)-N′-((2,4,5,6-tetrahydro-1H-cyclobuta[f]inden-3-yl)carbamoyl)thiophene-2-sulfonimidamide]"
4,200 to 1000,"NS(=O)(=NC(=O)Nc1c2c(cc3c1CC3)CCC2)c1cc2c(s1)CCNC2C(F)F (single isomer, unassigned) [Example 783, (R) or (S) -4-(difluoromethyl)-N′-((2,4,5,6-tetrahydro-1H-cyclobuta[f]inden-3-yl)carbamoyl)-4,5,6,7-tetrahydrothieno[3,2-c]pyridine-2-sulfonimidamide]"
5,40 to 200,"NS(=O)(=NC(=O)Nc1c2c(cc3c1CCC3)CCC2)c1cc2c(s1)CCNC2 (single isomer, unassigned) [Example 787, (R) or (S)-N′-((1,2,3,5,6,7-hexahydro-s-indacen-4-yl)carbamoyl)-4,5,6,7-tetrahydrothieno[3,2-c]pyridine-2-sulfonimidamide]"
6,200 to 1000,"NS(=O)(=NC(=O)Nc1c2c(cc3c1CCC3)CCC2)c1cc2c(s1)CCNC2 (single isomer, unassigned) [Example 788, (S) or (R)-N′-((1,2,3,5,6,7-hexahydro-5-indacen-4-yl)carbamoyl)-4,5,6,7-tetrahydrothieno[3,2-c]pyridine-2-sulfonimidamide]"
7,200 to 1000,"NS(=O)(=NC(=O)Nc1c2c(cc3c1CCC3)CCC2)c1cc2c(s1)CCOC2 (single isomer, unassigned) [Example 789, (R) or (S)-N′-((1,2,3,5,6,7-hexahydro-5-indacen-4-yl)carbamoyl)-6,7-dihydro-4H-thieno[3,2-c]pyran-2-sulfonimidamide]"
8,5000 to 30000,"NS(=O)(=NC(=O)Nc1c2c(cc3c1CCC3)CCC2)c1cc2c(s1)CCOC2 (single isomer, unassigned) [Example 790, (S) or (R)-N′-((1,2,3,5,6,7-hexahydro-s-indacen-4-yl)carbamoyl)-6,7-dihydro-4H-thieno[3,2-c]pyran-2-sulfonimidamide]"
9,200 to 1000,"CNS(=O)(=O)c1cccc(S(N)(=O)=NC(=O)Nc2c3c(cc4c2CCC4)CCC3)c1 (single isomer, unassigned) [Example 791, (R) or (S)-3-(N′-((1,2,3,5,6,7-hexahydro-5-indacen-4-yl)carbamoyl)sulfamidimidoyl)-N-methylbenzenesulfonamide]"
10,1000 to 5000,"CNS(=O)(=O)c1cccc(S(N)(=O)=NC(=O)Nc2c3c(cc4c2CCC4)CCC3)c1 (single isomer, unassigned) [Example 792, (S) or (R)-3-(N′-((1,2,3,5,6,7-hexahydro-s-indacen-4-yl)carbamoyl)sulfamidimidoyl)-N-methylbenzenesulfonamide]"
11,1000 to 5000,"COCCOC[C@@](C)(O)c1ncc(S(N)(=O)=NC(=O)Nc2c3c(cc4c2CCC4)CCC3)s1 (single isomer, unassigned) [Example 793, (S) or (R)-N′-((1,2,3,5,6,7-hexahydro-s-indacen-4-yl)carbamoyl)-2-((R)-2-hydroxy-1-(2-methoxyethoxy)propan-2-yl)thiazole-5-sulfonimidamide]"
12,8 to 40,"COCCOC[C@@](C)(O)c1ncc(S(N)(=O)=NC(=O)Nc2c3c(cc4c2CCC4)CCC3)s1 (single isomer, unassigned) [Example 794, (R) or (S)-N′-((1,2,3,5,6,7-hexahydro-s-indacen-4-yl)carbamoyl)-2-((R)-2-hydroxy-1-(2-methoxyethoxy)propan-2-yl)thiazole-5-sulfonimidamide]"
13,200 to 1000,"NS(=O)(=NC(=O)Nc1c2c(cc3c1CCC3)CCC2)c1sc(CNC2CCC2)cc1F (single isomer, unassigned) [Example 795, (R) or (S)-5-((cyclobutylamino)methyl)-3-fluoro-N′-((1,2,3,5,6,7-hexahydro-s-indacen-4-yl)carbamoyl)thiophene-2-sulfonimidamide]"
14,5000 to 30000,"NS(=O)(=NC(=O)Nc1c2c(cc3c1CCC3)CCC2)c1sc(CNC2CCC2)cc1F (single isomer, unassigned) [Example 796, (S) or (R)-5-((cyclobutylamino)methyl)-3-fluoro-N′-((1,2,3,5,6,7-hexahydro-s-indacen-4-yl)carbamoyl)thiophene-2-sulfonimidamide]"

# Same assay, conditions: hTHP-1 assay containing 2% fetal bovine serum, Table B2, class symbols; read-out: IC50
row,IC50 [nM],SMILES
1,1000 to 5000,"Cc1c(C2CC2)cc2c(c1NC(=O)N=S(N)(=O)c1sc(C(C)(C)O)cc1F)CCC2 (single isomer, unassigned) [Example 686, (S) or (R)-N′-((6-cyclopropyl-5-methyl-2,3-dihydro-1H-inden-4-yl)carbamoyl)-3-fluoro-5-(2-hydroxypropan-2-yl)thiophene-2-sulfonimidamide]"
2,40 to 200,"CN1CCc2sc(S(N)(=O)=NC(=O)Nc3c4c(cc5c3CCC5)CCC4)cc2C1 (single isomer, unassigned) [Example 687, (R) or (S)-N′-((1,2,3,5,6,7-hexahydro-s-indacen-4-yl)carbamoyl)-5-methyl-4,5,6,7-tetrahydrothieno [3,2-c]pyridine-2-sulfonimidamide]"
3,1000 to 5000,"CN1CCc2sc(S(N)(=O)=NC(=O)Nc3c4c(cc5c3CCC5)CCC4)cc2C1 (single isomer, unassigned) [Example 688, (S) or (R)-N′-((1,2,3,5,6,7-hexahydro-s-indacen-4-yl)carbamoyl)-5-methyl-4,5,6,7-tetrahydrothieno [3,2-c]pyridine-2-sulfonimidamide]"
4,40 to 200,"CNCc1csc(S(N)(=O)=NC(=O)Nc2c3c(cc4c2CCC4)CCC3)c1 (single isomer, unassigned) [Example 691, (R) or (S)-N′-((1,2,3,5,6,7-hexahydro-s-indacen-4-yl)carbamoyl)-4-((methylamino)methyl)thiophene-2-sulfonimidamide]"
5,1000 to 5000,"CNCc1csc(S(N)(=O)=NC(=O)Nc2c3c(cc4c2CCC4)CCC3)c1 (single isomer, unassigned) [Example 692, (S) or (R)-N′-((1,2,3,5,6,7-hexahydro-s-indacen-4-yl)carbamoyl)-4-((methylamino)methyl)thiophene-2-sulfonimidamide]"
6,200 to 1000,"NS(=O)(=NC(=O)Nc1c2c(cc3c1CCC3)CCC2)c1cc2c(s1)COCC2 (single isomer, unassigned) [Example 693, (R) or (S)-N′-((1,2,3,5,6,7-hexahydro-s-indacen-4-yl)carbamoyl)-4,7-dihydro-5H-thieno[2,3-c]pyran-2-sulfonimidamide]"
7,5000 to 30000,"NS(=O)(=NC(=O)Nc1c2c(cc3c1CCC3)CCC2)c1cc2c(s1)COCC2 (single isomer, unassigned) [Example 694, (S) or (R)-N′-((1,2,3,5,6,7-hexahydro-s-indacen-4-yl)carbamoyl)-4,7-dihydro-5H-thieno[2,3-c]pyran-2-sulfonimidamide]"
8,40 to 200,"CO[C@H]1COc2c(S(N)(=O)=NC(=O)Nc3c4c(cc5c3CCC5)CCC4)cnn2C1 (single isomer, unassigned) [Example 695, (R) or (S)-(6R)-N′-((1,2,3,5,6,7-hexahydro-s-indacen-4-yl)carbamoyl)-6-methoxy-6,7-dihydro-5H-pyrazolo[5,1-b][1,3]oxazine-3-sulfonimidamide]"
9,200 to 1000,"CO[C@H]1COc2c(S(N)(=O)=NC(=O)Nc3c4c(cc5c3CCC5)CCC4)cnn2C1 (single isomer, unassigned) [Example 696, (S) or (R)-(6R)-N′-((1,2,3,5,6,7-hexahydro-s-indacen-4-yl)carbamoyl)-6-methoxy-6,7-dihydro-5H-pyrazolo[5,1-b][1,3]oxazine-3-sulfonimidamide]"
10,40 to 200,"CN[C@H]1COc2c(S(N)(=O)=NC(=O)Nc3c4c(cc5c3CCC5)CCC4)cnn2C1 (single isomer, unassigned) [Example 697, (R) or (S)-(6R)-N′-((1,2,3,5,6,7-hexahydro-s-indacen-4-yl)carbamoyl)-6-(methylamino)-6,7-dihydro-5H-pyrazolo[5,1-b][1,3]oxazine-3-sulfonimidamide]"
11,1000 to 5000,"CN[C@H]1COc2c(S(N)(=O)=NC(=O)Nc3c4c(cc5c3CCC5)CCC4)cnn2C1 (single isomer, unassigned) [Example 698, (S) or (R)-(6R)-N′-((1,2,3,5,6,7-hexahydro-s-indacen-4-yl)carbamoyl)-6-(methylamino)-6,7-dihydro-5H-pyrazolo[5,1-b][1,3]oxazine-3-sulfonimidamide]"
12,40 to 200,"N=S(=O)(NC(=O)Nc1c2c(cc3c1CCC3)CCC2)c1nn(C(F)F)cc1F (single isomer, unassigned) [Example 710]"
13,1000 to 5000,"N=S(=O)(NC(=O)Nc1c2c(cc3c1CCC3)CCC2)c1nn(C(F)F)cc1F (single isomer, unassigned) [Example 711]"
